Patent publication US8426345B2, “Method of drug design” (Alchemia Limited, priority 2005, dated 2013)

Biological target: T1, Human SST5 somatostatin receptor (Homo sapiens, UniProt P35346)
T1 construct: expressed in transfected cells; host or cells: HEK-293 EBNA cells (membranes)
Experiment: Filter plate radio-ligand binding assay for SST5 receptor ([125I]SST-14 displacement)
Details: 3P library; for % SST5 radio-ligand binding displaced at conc 0.25: conc 0.25 μM; for % SST5 radio-ligand binding displaced at conc 1.0: conc 1.0 μM

T1 sequence (P35346 whole entry): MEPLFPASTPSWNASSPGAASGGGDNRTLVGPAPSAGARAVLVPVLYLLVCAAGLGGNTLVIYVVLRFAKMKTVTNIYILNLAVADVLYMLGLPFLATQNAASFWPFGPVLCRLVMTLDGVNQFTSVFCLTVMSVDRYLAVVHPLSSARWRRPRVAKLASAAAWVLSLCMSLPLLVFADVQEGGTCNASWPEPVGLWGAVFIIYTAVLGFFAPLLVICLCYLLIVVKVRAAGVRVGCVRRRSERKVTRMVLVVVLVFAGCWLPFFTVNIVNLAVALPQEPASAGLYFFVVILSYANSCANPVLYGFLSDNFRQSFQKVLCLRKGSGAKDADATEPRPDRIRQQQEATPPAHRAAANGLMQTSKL

Row | Compound | % SST5 radio-ligand binding displaced at conc 0.25 | % SST5 radio-ligand binding displaced at conc 1.0 | other results
1 | NCCCC(=O)N[C@H]1[C@@H](OCc2ccc3ccccc3c2)O[C@H](COCc2ccc(Cl)cc2)[C@@H](O)[C@@H]1OCc1ccc(Cl)cc1 [Compound 137] | − (% SST5 radio-ligand binding displaced at cone (μM) −<40%) | ++ (% SST5 radio-ligand binding displaced at conc (μM) >60%) | 
2 | COC1C(O)C(COCc2ccc3ccccc3c2)OC(OCc2ccc(Cl)cc2)C1NC(=O)C1CCCN1 (mixture of isomers) [Compound 167] |  |  | % SST5 radio-ligand binding displaced at conc 0.5 (conc 0.5 μM): ++ (% SST5 radio-ligand binding displaced at conc (μM) >60%); % SST5 radio-ligand binding displaced at conc 10 (conc 10 μM): ++ (% SST5 radio-ligand binding displaced at conc (μM) >60%)
3 | COC[C@H]1O[C@H](OCc2ccc3ccccc3c2)[C@H](NC(=O)CCCN)[C@@H](OCc2cccc(Cl)c2)[C@@H]1O [Compound 144] | + (% SST5 radio-ligand binding displaced at cone (μM) 60>+>40%) | ++ (% SST5 radio-ligand binding displaced at conc (μM) >60%) | 
4 | NCCC(=O)NC1C(OCc2ccc3ccccc3c2)OC(COCc2ccc3ccccc3c2)C(O)C1OCc1ccccc1 (mixture of isomers) [Compound 76] | − (% SST5 radio-ligand binding displaced at cone (μM) −<40%) | ++ (% SST5 radio-ligand binding displaced at conc (μM) >60%) | 
5 | COC[C@H]1O[C@H](OCc2ccc(Cl)cc2)[C@H](NC(=O)CN)[C@H](OC)[C@@H]1O [Compound 158] |  |  | % SST5 radio-ligand binding displaced at conc 50 (conc 50 μM): − (% SST5 radio-ligand binding displaced at cone (μM) −<40%); % SST5 radio-ligand binding displaced at conc 250 (conc 250 μM): − (% SST5 radio-ligand binding displaced at cone (μM) −<40%); % SST5 radio-ligand binding displaced at conc 500 (conc 500 μM): − (% SST5 radio-ligand binding displaced at cone (μM) −<40%)
